One assay concerns the target T1, KAT5 (Homo sapiens, UniProt Q92993).
T1 construct: His-TEV tag (N, cleaved yes); made in house
The assay can be described thus: KAT5 enzyme inhibition assay (SAMDI mass spectrometry). Particulars: His-TEV-FL KAT5-Flag enzyme construct. The format is biochemical.

For a further assay, the target named is T2, KAT6A (Homo sapiens, UniProt Q92794).
T2 construct: His-TEV tag (N, cleaved yes); made in house
Put plainly: KAT6A enzyme inhibition assay (SAMDI mass spectrometry). Format: biochemical. Particulars: His-TEV-KAT6A 501-784 enzyme construct.

Structures are written as SMILES.

T2 sequence (Q92794 with tags, fused parts or gaps): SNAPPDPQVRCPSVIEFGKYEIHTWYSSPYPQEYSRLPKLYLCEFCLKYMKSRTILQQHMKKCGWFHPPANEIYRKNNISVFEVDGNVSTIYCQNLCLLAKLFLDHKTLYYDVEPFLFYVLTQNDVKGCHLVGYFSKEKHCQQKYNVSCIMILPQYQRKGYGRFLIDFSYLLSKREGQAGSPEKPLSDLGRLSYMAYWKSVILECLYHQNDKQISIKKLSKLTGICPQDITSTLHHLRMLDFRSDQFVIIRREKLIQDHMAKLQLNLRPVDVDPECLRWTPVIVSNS
T1 sequence (Q92993 with tags, fused parts or gaps): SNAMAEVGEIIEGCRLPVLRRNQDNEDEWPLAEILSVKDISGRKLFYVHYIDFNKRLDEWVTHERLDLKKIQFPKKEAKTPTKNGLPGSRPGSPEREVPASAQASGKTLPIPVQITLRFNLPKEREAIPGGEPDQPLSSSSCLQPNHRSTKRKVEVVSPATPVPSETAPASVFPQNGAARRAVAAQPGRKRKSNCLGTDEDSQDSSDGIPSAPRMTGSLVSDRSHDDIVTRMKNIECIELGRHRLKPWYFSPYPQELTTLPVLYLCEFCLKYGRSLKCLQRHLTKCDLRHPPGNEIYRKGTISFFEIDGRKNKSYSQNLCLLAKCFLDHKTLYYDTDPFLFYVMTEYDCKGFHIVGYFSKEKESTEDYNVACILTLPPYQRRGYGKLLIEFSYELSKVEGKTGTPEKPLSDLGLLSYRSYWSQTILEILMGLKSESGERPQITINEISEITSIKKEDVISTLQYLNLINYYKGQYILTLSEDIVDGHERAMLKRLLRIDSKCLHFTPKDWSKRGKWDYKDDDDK

In general, IC50 refers to the concentration needed to halve the response being measured. Turning to `O=S(=O)(NNc1n[nH]c2ccc(-c3ccccc3)cc12)c1ccccc1` [Compound I-46], the IC50 at KAT5 and on KAT6A was greater than 100 µM throughout.
For `Cc1cc(-c2ccccc2)cc(C(=O)NNS(=O)(=O)C2CCNC2)c1F` (stereo not drawn) [Compound I-23], the IC50 at KAT5 and at KAT6A was 10 to 50 µM throughout.
For the compound `Cc1cc(-c2ccccc2)cc(C(=O)NNS(=O)(=O)C(C)C2CCCN(C(=O)OC(C)(C)C)C2)c1F` (stereo not drawn) [Compound I-313], the figures for the IC50 against KAT5 and on KAT6A were no more than 10 µM and 10 to 50 µM, respectively.
Regarding `O=C(NNS(=O)(=O)C1CCOCC1)c1cc(CO)cc(Cl)c1F` [Compound I-465], the values for the IC50 against KAT5 and against KAT6A were greater than 100 µM and 50 to 100 µM, respectively.
With `Cc1cccc(-c2ccc(F)c(C(=O)NNS(=O)(=O)c3ccccc3)c2C)c1` [Compound I-273], the IC50 was greater than 100 µM against KAT5 and 50 to 100 µM against KAT6A.
With `CNC(=O)CCNC(=O)c1cc(Cl)c(F)c(C(=O)NNS(=O)(=O)C2CCOCC2)c1` [Compound I-493], the IC50 at KAT5 and at KAT6A was greater than 100 µM in each case.
Regarding `O=C(NNS(=O)(=O)c1cccc(Cl)c1)c1cc(-c2ccccc2)ccc1F` [Compound I-152], the IC50 against KAT5 is 10 to 50 µM; against KAT6A it was no more than 10 µM.
`CCc1cc(Cl)c(F)c(C(=O)NNS(=O)(=O)C2CCCCC2)c1` [Compound I-420]: the IC50 was 10 to 50 µM on KAT5 and greater than 100 µM against KAT6A.
As to `Cc1cc(-c2ccccc2)cc(C(=O)NNS(=O)(=O)CC2CCN(C(=O)OC(C)(C)C)C2)c1F` (stereo not drawn) [Compound I-206], the IC50 against KAT5 and at KAT6A was no more than 10 µM in each case.
As to `Cc1cc(-c2ccccc2)cc(C(=O)NNS(=O)(=O)CC2CN(C(=O)OC(C)(C)C)C2)c1F` [Compound I-207], the IC50 against KAT5 and against KAT6A was no more than 10 µM each time.
Regarding `Cc1c(-c2ccccc2)ccc(F)c1C(=O)NNS(=O)(=O)C1CCCC1` [Compound I-249], the half-inhibitory concentration (IC50) against KAT5 and at KAT6A was greater than 100 µM each time.
As to `O=C(NNS(=O)(=O)c1ccccc1)c1ccccn1` [Compound I-194], the IC50 against KAT5 and against KAT6A was greater than 100 µM throughout.
With `O=C(NNS(=O)(=O)C1CCCCC1)c1c(F)ccc(-c2ccccc2)c1F` [Compound I-364], the IC50 at KAT5 and against KAT6A was 50 to 100 µM in each case.
Take `Cc1cccc(-c2ccc(F)c(C(=O)NNS(=O)(=O)c3ccccc3)c2)c1` [Compound I-125]: the values for the IC50 against KAT5 and against KAT6A were 10 to 50 µM and no more than 10 µM, respectively.
As for `Cc1cc(-c2ccccc2)cc(C(=O)NNS(=O)(=O)C2CCCN(C(=O)C(C)C)C2)c1F` (stereo not drawn) [Compound I-111], the IC50 is 10 to 50 µM against KAT5 and no more than 10 µM against KAT6A.
For the compound `COc1ccccc1CN1CCC(S(=O)(=O)NNC(=O)c2cc(-c3ccccc3)cc(C)c2F)C1` (stereo not drawn) [Compound I-25], the IC50 on KAT5 and at KAT6A was 10 to 50 µM each time.
In the case of `CC(=O)N1CC(S(=O)(=O)NNC(=O)c2cc(-c3ccccc3)cc(C)c2F)C1` [Compound I-40], the IC50 against KAT5 was 50 to 100 µM; against KAT6A, 10 to 50 µM.
Turning to `COCC(=O)N1CCCC(CS(=O)(=O)NNC(=O)c2cc(-c3cccc(F)c3)cc(Cl)c2F)C1` (stereo not drawn) [Compound I-418], the IC50 against KAT5 and at KAT6A was no more than 10 µM throughout.
For the compound `CN1CCC(c2ccc(F)c(C(=O)NNS(=O)(=O)C3CCCCC3)c2)C1` (stereo not drawn) [Compound I-407], the IC50 against KAT5 and on KAT6A was greater than 100 µM in each case.
On to `O=C(NCCO)c1cc(Cl)c(F)c(C(=O)NNS(=O)(=O)C2CCCCC2)c1` [Compound I-470], for which the IC50 against KAT5 was 50 to 100 µM; against KAT6A it was greater than 100 µM.
As for `Cc1cc(-c2ccccc2)cc(C(=O)NNS(=O)(=O)Cc2ccc(F)cc2)c1F` [Compound I-84], the IC50 against KAT5 and on KAT6A was no more than 10 µM in each case.
Regarding `COc1cc(F)cc(-c2cc(Cl)c(F)c(C(=O)NNS(=O)(=O)C3CCCCC3)c2)c1` [Compound I-486], the IC50 on KAT5 and against KAT6A was 10 to 50 µM each time.
For `Cc1cc(-c2ccccc2)cc(C(=O)NN(C)S(=O)(=O)c2ccccc2)c1F` [Compound I-242], the IC50 is greater than 100 µM against KAT5 and 10 to 50 µM against KAT6A.
For the compound `Cc1cc(-c2ccccc2)cc(C(=O)NNS(=O)(=O)CC2CCCN(C)C2)c1F` (stereo not drawn) [Compound I-337], the IC50 against KAT5 and against KAT6A was 10 to 50 µM in each case.
As for `Cc1cc(-c2ccccc2)cc(C(=O)NNS(=O)(=O)CC2CCCN(C(=O)CCN(C)C(=O)OC(C)(C)C)C2)c1F` (stereo not drawn) [Compound I-379], the IC50 against KAT5 and on KAT6A was no more than 10 µM in each case.
Regarding `CNC(=O)Cn1nc(C)cc1C(=O)NNS(=O)(=O)C1CCCCC1` [Compound I-500], the IC50 against KAT5 and at KAT6A was greater than 100 µM throughout.
With `O=C(NNS(=O)(=O)c1ccccc1Cl)c1ccccc1F` [Compound I-130], the IC50 at KAT5 and against KAT6A was greater than 100 µM throughout.
Regarding `Cc1cc(-c2cccc(F)c2)cc(C(=O)NNS(=O)(=O)CC2CNCCO2)c1F` (stereo not drawn) [Compound I-428], the IC50 against KAT5 was 10 to 50 µM; at KAT6A, no more than 10 µM.
As for `O=C(NNS(=O)(=O)c1ccccc1)c1cccc(-c2ccccc2)c1F` [Compound I-234], the results for the IC50 against KAT5 and at KAT6A were greater than 100 µM and no more than 10 µM, respectively.
As to `Cc1cc(-c2ccccc2)cc(C(=O)NNS(=O)(=O)CC2CCCCC2)c1F` [Compound I-227], the IC50 at KAT5 and on KAT6A was no more than 10 µM each time.
As for `Cc1cc(-c2ccccc2)cc(C(=O)NNS(=O)(=O)C2CCN(C(=O)c3ccccc3)C2)c1F` (stereo not drawn) [Compound I-32], the IC50 is 10 to 50 µM against KAT5 and no more than 10 µM against KAT6A.
On the same counts, the results for `Cc1cccc(-c2cc(Cl)c(F)c(C(=O)NNS(=O)(=O)CC3CCCNC3)c2)c1` (stereo not drawn) [Compound I-514] are greater than 100 µM and greater than 100 µM.
On the same counts, the results for `Cc1cc(-c2ccccc2)cc(C(=O)NNS(=O)(=O)c2ccc(Cl)cc2)c1F` [Compound I-217] are no more than 10 µM and no more than 10 µM.
As for `Cc1cc(-c2cccc(F)c2F)cc(C(=O)NNS(=O)(=O)c2ccccc2)c1F` [Compound I-362], the IC50 against KAT5 and at KAT6A was no more than 10 µM in each case.
Regarding `O=C(NNS(=O)(=O)CC1CCOCC1)c1cc(Cl)cc(Cl)c1F` [Compound I-412], the results for the IC50 on KAT5 and on KAT6A were 10 to 50 µM and greater than 100 µM, respectively.
Taken in the same sequence, the figures for `Cc1cc(F)c(-c2ccccc2)cc1C(=O)NNS(=O)(=O)c1ccccc1` [Compound I-123] were greater than 100 µM and greater than 100 µM.
Consider `Cc1cc(-c2ccccc2)cc(C(=O)NNS(=O)(=O)C2CCN(CCc3ccccc3)C2)c1F` (stereo not drawn) [Compound I-36], for which the IC50 against KAT5 and against KAT6A was 10 to 50 µM in each case.
For `O=C(NNS(=O)(=O)C1CCCCC1)c1cc(Cl)cc(Cl)c1F` [Compound I-413], the IC50 against KAT5 is 10 to 50 µM; at KAT6A it was greater than 100 µM.
As for `O=C(NNS(=O)(=O)C1CCCCC1)c1cc(-c2cccc(F)c2)cc(Cl)c1F` [Compound I-395], the IC50 against KAT5 and against KAT6A was no more than 10 µM in each case.
In the case of `O=C(NNS(=O)(=O)c1cccc(Cl)c1)c1c(F)ccc(-c2cnc[nH]2)c1F` [Compound I-499], the IC50 on KAT5 and against KAT6A was greater than 100 µM throughout.
Regarding `Cc1cc(-c2ccccc2)cc(C(=O)NNS(=O)(=O)C2CCN(C(=O)OC(C)(C)C)CC2)c1F` [Compound I-88], the IC50 on KAT5 and on KAT6A was no more than 10 µM throughout.
Take `COCc1cc(Cl)c(F)c(C(=O)NNS(=O)(=O)C2CCCCC2)c1` [Compound I-451]: the IC50 at KAT5 is no more than 10 µM; against KAT6A it was 10 to 50 µM.
For the compound `Cc1cc(-c2cccc(F)c2F)cc(C(=O)NNS(=O)(=O)CC2CCCCC2)c1F` [Compound I-380], the IC50 against KAT5 was greater than 100 µM; against KAT6A, 50 to 100 µM.
Consider `Cc1cccc(S(=O)(=O)NNC(=O)c2cccc(-c3ccccc3)c2F)c1` [Compound I-226], for which the results for the IC50 against KAT5 and against KAT6A were greater than 100 µM and no more than 10 µM, respectively.
Regarding `COCc1cc(Cl)c(F)c(C(=O)NNS(=O)(=O)CC2CCOCC2)c1` [Compound I-452], the IC50 against KAT5 and on KAT6A was no more than 10 µM throughout.
As for `Cc1cc(-c2cc(F)cc(F)c2)cc(C(=O)NNS(=O)(=O)C2CCCCC2)c1F` [Compound I-317], the IC50 against KAT5 was no more than 10 µM; against KAT6A, 10 to 50 µM.
On to `Cc1cc(-c2cccc(Cl)c2)cc(C(=O)NNS(=O)(=O)CC2CCCCC2)c1F` [Compound I-342], for which the concentration for half-maximal inhibition (IC50) against KAT5 and against KAT6A was 50 to 100 µM throughout.
Take `Cc1cc(-c2ccccc2)cc(C(=O)NNS(=O)(=O)c2cccc(C(N)=O)c2)c1F` [Compound I-383]: the IC50 against KAT5 and at KAT6A was no more than 10 µM in each case.
In the case of `COCCN1CCC(CS(=O)(=O)NNC(=O)c2cc(-c3ccccc3)cc(C)c2F)C1` (stereo not drawn) [Compound I-336], the IC50 against KAT5 and on KAT6A was 10 to 50 µM in each case.
For `O=C(NNS(=O)(=O)C1CCOCC1)c1cc(Cn2cccn2)cc(Cl)c1F` [Compound I-464], the IC50 against KAT5 and on KAT6A was greater than 100 µM each time.
Take `O=C(NNS(=O)(=O)C1CCCCC1)c1cc(-c2cc(F)cc(Cl)c2)cc(Cl)c1F` [Compound I-490]: the half-maximal inhibitory concentration (IC50) against KAT5 lay within 50 to 100 µM; on KAT6A, 10 to 50 µM.
Regarding `O=C(NNS(=O)(=O)c1ccccc1)c1c(F)c(Cl)cc(-c2ccccc2)c1F` [Compound I-136], the IC50 against KAT5 and on KAT6A was no more than 10 µM in each case.
On to `O=C(NNS(=O)(=O)c1cc(-c2ccccc2)cc(Cl)c1F)c1ccccc1` [Compound I-523], for which the IC50 on KAT5 and against KAT6A was 10 to 50 µM each time.
Turning to `CC(=O)N1CCC(CS(=O)(=O)NNC(=O)c2cc(-c3cccc(F)c3)cc(C)c2F)CC1` [Compound I-388], the IC50 on KAT5 and at KAT6A was no more than 10 µM each time.
Consider `COc1ccc(C(=O)NNS(=O)(=O)c2ccccc2)cc1` [Compound I-192], for which the IC50 on KAT5 and against KAT6A was greater than 100 µM in each case.
Take `O=C(NNS(=O)(=O)c1ccccc1)c1cc(-c2ccccc2)ccc1F` [Compound I-253]: the figures for the IC50 at KAT5 and at KAT6A were 50 to 100 µM and 10 to 50 µM, respectively.
In the case of `CC(C)C(Cc1ccccc1)CS(=O)(=O)NNC(=O)c1ccccc1` (stereo not drawn) [Compound I-265], the IC50 against KAT5 and at KAT6A was greater than 100 µM in each case.

Source of the values: patent US20220267260A1, “COMPOUNDS CONTAINING A SULFONIC GROUP AS KAT INHIBITORS” (Epizyme, Inc., priority 2016, published 2022).
